Measurements from publication PMC11576293, “New series of 4,6-diaryl pyrimidines: facile synthesis and antiproliferative activity as dual EGFR/VEGFR-2 inhibitors” (Frontiers in Chemistry, 2024).

Key:
Test in all cases: NCI-60 single-dose screen
Type in all cases: cell-based
SN12C = settings: Homo sapiens, single dose 10 µM, '-' = no inhibition, read-out: % Growth Inhibition
In short: (§1)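 Was run as a one-dose (10 μM) screen by the NCI Developmental Therapeutics Program, covering 60 tumour cell lines from nine cancer types including renal, melanoma and CNS.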

SK-OV-3 = settings: Homo sapiens, single dose 10 µM, '-' = no inhibition, read-out: % Growth Inhibition
In short: as §1

DU-145 = settings: Homo sapiens, single dose 10 µM, '-' = no inhibition, read-out: % Growth Inhibition
In short: as §1

SW-620 = settings: Homo sapiens, single dose 10 µM, '-' = no inhibition, read-out: % Growth Inhibition
In short: as §1

OVCAR-4 = settings: Homo sapiens, single dose 10 µM, '-' = no inhibition, read-out: % Growth Inhibition
In short: as §1

SK-MEL-5 = settings: Homo sapiens, single dose 10 µM, '-' = no inhibition, read-out: % Growth Inhibition
In short: as §1

SF-268 = settings: Homo sapiens, single dose 10 µM, '-' = no inhibition, read-out: % Growth Inhibition
In short: as §1

786-0 = settings: Homo sapiens, single dose 10 µM, '-' = no inhibition, read-out: % Growth Inhibition
In short: as §1

UACC-257 = settings: Homo sapiens, single dose 10 µM, '-' = no inhibition, read-out: % Growth Inhibition
In short: as §1

HCC-2998 = settings: Homo sapiens, single dose 10 µM, '-' = no inhibition, read-out: % Growth Inhibition
In short: as §1

COLO 205 = settings: Homo sapiens, single dose 10 µM, '-' = no inhibition, read-out: % Growth Inhibition
In short: as §1

A498 = settings: Homo sapiens, single dose 10 µM, '-' = no inhibition, read-out: % Growth Inhibition
In short: as §1

SF-295 = settings: Homo sapiens, single dose 10 µM, '-' = no inhibition, read-out: % Growth Inhibition
In short: as §1

MALME-3M = settings: Homo sapiens, single dose 10 µM, '-' = no inhibition, read-out: % Growth Inhibition
In short: as §1

TK-10 = settings: Homo sapiens, single dose 10 µM, '-' = no inhibition, read-out: % Growth Inhibition
In short: as §1

IGROV1 = settings: Homo sapiens, IGROV-1, single dose 10 µM, '-' = no inhibition, read-out: % Growth Inhibition
In short: as §1

PC-3 = settings: Homo sapiens, single dose 10 µM, '-' = no inhibition, read-out: % Growth Inhibition
In short: as §1

HOP-92 = settings: Homo sapiens, single dose 10 µM, '-' = no inhibition, read-out: % Growth Inhibition
In short: as §1

T-47D = settings: Homo sapiens, T47D, single dose 10 µM, '-' = no inhibition, read-out: % Growth Inhibition
In short: as §1

HCT-116 = settings: Homo sapiens, single dose 10 µM, '-' = no inhibition, read-out: % Growth Inhibition
In short: as §1

K-562 = settings: Homo sapiens, K562, single dose 10 µM, '-' = no inhibition, read-out: % Growth Inhibition
In short: as §1

U251 = settings: Homo sapiens, U-251, single dose 10 µM, '-' = no inhibition, read-out: % Growth Inhibition
In short: as §1

RXF 393 = settings: Homo sapiens, single dose 10 µM, '-' = no inhibition, read-out: % Growth Inhibition
In short: as §1

RPMI-8226 = settings: Homo sapiens, single dose 10 µM, '-' = no inhibition, read-out: % Growth Inhibition
In short: as §1

HOP-62 = settings: Homo sapiens, single dose 10 µM, '-' = no inhibition, read-out: % Growth Inhibition
In short: as §1

BT-549 = settings: Homo sapiens, single dose 10 µM, '-' = no inhibition, read-out: % Growth Inhibition
In short: as §1

SK-MEL-2 = settings: Homo sapiens, single dose 10 µM, '-' = no inhibition, read-out: % Growth Inhibition
In short: as §1

EKVX = settings: Homo sapiens, single dose 10 µM, '-' = no inhibition, read-out: % Growth Inhibition
In short: as §1

OVCAR-5 = settings: Homo sapiens, single dose 10 µM, '-' = no inhibition, read-out: % Growth Inhibition
In short: as §1

A549/ATCC = settings: Homo sapiens, single dose 10 µM, '-' = no inhibition, read-out: % Growth Inhibition
In short: as §1

HL-60(TB) = settings: Homo sapiens, single dose 10 µM, '-' = no inhibition, read-out: % Growth Inhibition
SF-539 = settings: Homo sapiens, single dose 10 µM, '-' = no inhibition, read-out: % Growth Inhibition
In short: as §1

HS 578T = settings: Homo sapiens, single dose 10 µM, '-' = no inhibition, read-out: % Growth Inhibition
In short: as §1

CCRF-CEM = settings: Homo sapiens, single dose 10 µM, '-' = no inhibition, read-out: % Growth Inhibition
In short: as §1

MDA-MB-468 = settings: Homo sapiens, single dose 10 µM, '-' = no inhibition, read-out: % Growth Inhibition
In short: as §1

NCI-H23 = settings: Homo sapiens, single dose 10 µM, '-' = no inhibition, read-out: % Growth Inhibition
In short: as §1

M14 = settings: Homo sapiens, single dose 10 µM, '-' = no inhibition, read-out: % Growth Inhibition
In short: as §1

HT29 = settings: Homo sapiens, HT-29, single dose 10 µM, '-' = no inhibition, read-out: % Growth Inhibition
In short: as §1

NCI-H460 = settings: Homo sapiens, single dose 10 µM, '-' = no inhibition, read-out: % Growth Inhibition
In short: as §1

MDA-MB-435 = settings: Homo sapiens, single dose 10 µM, '-' = no inhibition, read-out: % Growth Inhibition
In short: as §1

SK-MEL-28 = settings: Homo sapiens, single dose 10 µM, '-' = no inhibition, read-out: % Growth Inhibition
In short: as §1

SR = settings: Homo sapiens, single dose 10 µM, '-' = no inhibition, read-out: % Growth Inhibition
In short: as §1

KM12 = settings: Homo sapiens, single dose 10 µM, '-' = no inhibition, read-out: % Growth Inhibition
In short: as §1

ACHN 1 = settings: Homo sapiens, single dose 10 µM, '-' = no inhibition, read-out: % Growth Inhibition
In short: as §1

OVCAR-8 = settings: Homo sapiens, single dose 10 µM, '-' = no inhibition, read-out: % Growth Inhibition
In short: as §1

MCF7 = settings: Homo sapiens, single dose 10 µM, '-' = no inhibition, read-out: % Growth Inhibition
In short: as §1

NCI-H322M = settings: Homo sapiens, single dose 10 µM, '-' = no inhibition, read-out: % Growth Inhibition
In short: as §1

SNB-75 = settings: Homo sapiens, single dose 10 µM, '-' = no inhibition, read-out: % Growth Inhibition
In short: as §1

CCCSc1nc(-c2ccc(OC)cc2)cc(-c2cccc(OC)c2)n1 [Compound 18, 6-(3-Methoxyphenyl)-4-(4-methoxyphenyl)-2-(propylthio)pyrimidine]
inhibition at 10 µM (SN12C): < 0%
inhibition at 10 µM (SK-OV-3): < 0%
inhibition at 10 µM (DU-145): < 0%
inhibition at 10 µM (SW-620): < 0%
inhibition at 10 µM (OVCAR-4): 3.94%
inhibition at 10 µM (SK-MEL-5): 3.1%
inhibition at 10 µM (SF-268): < 0%
inhibition at 10 µM (786-0): < 0%
inhibition at 10 µM (UACC-257): < 0%
inhibition at 10 µM (HCC-2998): < 0%
inhibition at 10 µM (COLO 205): 0.86%
inhibition at 10 µM (A498): < 0%
inhibition at 10 µM (SF-295): < 0%
inhibition at 10 µM (MALME-3M): < 0%
inhibition at 10 µM (TK-10): < 0%
inhibition at 10 µM (IGROV1): < 0%
inhibition at 10 µM (PC-3): < 0%
inhibition at 10 µM (HOP-92): < 0%
inhibition at 10 µM (T-47D): 13.8%
inhibition at 10 µM (HCT-116): 3.37%
inhibition at 10 µM (K-562): 12.8%
inhibition at 10 µM (U251): < 0%
inhibition at 10 µM (RXF 393): < 0%
inhibition at 10 µM (RPMI-8226): < 0%
inhibition at 10 µM (HOP-62): < 0%
inhibition at 10 µM (BT-549): < 0%
inhibition at 10 µM (SK-MEL-2): 3.6%
inhibition at 10 µM (EKVX): < 0%
inhibition at 10 µM (OVCAR-5): < 0%
inhibition at 10 µM (A549/ATCC): 7.77%
inhibition at 10 µM (HL-60(TB)): 20.3%
inhibition at 10 µM (SF-539): < 0%
inhibition at 10 µM (HS 578T): < 0%
inhibition at 10 µM (CCRF-CEM): < 0%
inhibition at 10 µM (MDA-MB-468): < 0%
inhibition at 10 µM (NCI-H23): < 0%
inhibition at 10 µM (M14): 9.08%
inhibition at 10 µM (HT29): 4.83%
inhibition at 10 µM (NCI-H460): < 0%
inhibition at 10 µM (MDA-MB-435): 5.12%
inhibition at 10 µM (SK-MEL-28): < 0%
inhibition at 10 µM (SR): 14.9%
inhibition at 10 µM (KM12): 1.47%
inhibition at 10 µM (ACHN 1): < 0%
inhibition at 10 µM (OVCAR-8): < 0%
inhibition at 10 µM (MCF7): 17.3%
inhibition at 10 µM (NCI-H322M): < 0%
inhibition at 10 µM (SNB-75): < 0%

COc1ccc(-c2cc(-c3cccc(OC)c3)nc(SC(C)C)n2)cc1 [Compound 19, 2-(Isopropylthio)-6-(3-methoxyphenyl)-4-(4-methoxyphenyl)pyrimidine]
inhibition at 10 µM (SN12C): 18.5%
inhibition at 10 µM (SK-OV-3): < 0%
inhibition at 10 µM (DU-145): 4.58%
inhibition at 10 µM (SW-620): < 0%
inhibition at 10 µM (OVCAR-4): 4.28%
inhibition at 10 µM (SK-MEL-5): 7.31%
inhibition at 10 µM (SF-268): 9.81%
inhibition at 10 µM (786-0): 4.09%
inhibition at 10 µM (UACC-257): < 0%
inhibition at 10 µM (HCC-2998): < 0%
inhibition at 10 µM (COLO 205): 0.02%
inhibition at 10 µM (A498): < 0%
inhibition at 10 µM (SF-295): 4.16%
inhibition at 10 µM (MALME-3M): < 0%
inhibition at 10 µM (TK-10): < 0%
inhibition at 10 µM (IGROV1): < 0%
inhibition at 10 µM (PC-3): 17.2%
inhibition at 10 µM (HOP-92): < 0%
inhibition at 10 µM (T-47D): 24.6%
inhibition at 10 µM (HCT-116): 23.8%
inhibition at 10 µM (K-562): 29.5%
inhibition at 10 µM (U251): 10.2%
inhibition at 10 µM (RXF 393): 18.9%
inhibition at 10 µM (RPMI-8226): 10.1%
inhibition at 10 µM (HOP-62): < 0%
inhibition at 10 µM (BT-549): 6.85%
inhibition at 10 µM (SK-MEL-2): 7.18%
inhibition at 10 µM (EKVX): 22.7%
inhibition at 10 µM (OVCAR-5): 0.61%
inhibition at 10 µM (A549/ATCC): 15.9%
inhibition at 10 µM (HL-60(TB)): 22.6%
inhibition at 10 µM (SF-539): 0.24%
inhibition at 10 µM (HS 578T): 4.95%
inhibition at 10 µM (CCRF-CEM): 9.07%
inhibition at 10 µM (MDA-MB-468): 20.2%
inhibition at 10 µM (NCI-H23): 8.76%
inhibition at 10 µM (M14): < 0%
inhibition at 10 µM (HT29): 32.5%
inhibition at 10 µM (NCI-H460): 2.13%
inhibition at 10 µM (MDA-MB-435): 3.92%
inhibition at 10 µM (SK-MEL-28): < 0%
inhibition at 10 µM (SR): 27.6%
inhibition at 10 µM (KM12): 5.72%
inhibition at 10 µM (ACHN 1): < 0%
inhibition at 10 µM (OVCAR-8): 10.7%
inhibition at 10 µM (MCF7): 11.6%
inhibition at 10 µM (NCI-H322M): 4.92%
inhibition at 10 µM (SNB-75): < 0%
